# Reference: patent US8592456B2 (4SC Discovery GmbH, priority 2011, dated 2013)
# Read-outs that look alike come from different tables or passages of the source.
# Test system: PBMC (T cell proliferation)
# Test: T cell proliferation assay, PHA-stimulated human PBMC (BrdU ELISA)
# Type: cell-based
# Experimental: Cell proliferation was analysed using the BrdU based cell proliferation ELISA from Roche (Mannheim, Germany) according to the manufacturer's instructions.
# T Cell Proliferation Assay
# Peripheral blood mononuclear cells (PBMC) from healthy human donors were isolated by centrifugation over Ficoll-Hypaque (Sigma-Aldrich, Germany) according to manufacturer's instructions. Purified PBMC were washed twice with PBS and resuspended in RPMI1640 culture medium supplemented with 10% dialyzed heat inactivated fetal calf serum, 1.5 mM L-glutamine, 100 U penicillin/ml, and […] (all from PAN Biotech, Aidenbach, Germany). For stimulation, PBMC were seeded at 1×10^5 cells/well, activated with 2 μg/ml phytohaemagglutinin (PHA, Sigma) and incubated with the test compound. After 48 hours proliferation was measured using the BrdU based cell proliferation ELISA from Roche (Mannheim, Germany) according to the manual.
# [1] = human PBMC, 2 μg/ml PHA, 48 hours, BrdU, read-out: D: IC50 (Tcell proliferation)
# [2] = PHA-stimulated human PBMC, 48 hours, BrdU, column D, activity classes 1-4, read-out: IC50 (Tcell proliferation)
Compound,IC50 [1] [nM],other results
"O=C(O)c1c(-c2c(F)cccc2Cl)noc1-c1cnn(Cc2ccccc2F)c1C(F)(F)F [Example B-86, 3-(2-chloro-6-fluorophenyl)-5-(1-(2-fluorobenzyl)-5-(trifluoromethyl)-1H-pyrazol-4-yl)isoxazole-4-carboxylic acid]",1000 to 10000,
"CCOC(=O)c1c(-c2ccncc2F)noc1-c1cnn(-c2ccccc2F)c1C(F)(F)F [Example B-15, ethyl 5-(1-(2-fluorophenyl)-5-(trifluoromethyl)-1H-pyrazol-4-yl)-3-(3-fluoropyridin-4-yl)isoxazole-4-carboxylate]",100 to 1000,
"CC(=O)Nc1cccc(-n2ncc(-c3onc(-c4c(F)cccc4Cl)c3-c3nnc(C)s3)c2C(F)(F)F)c1 [IB-12, N-(3-(4-(3-(2-chloro-6-fluorophenyl)-4-(5-methyl-1,3,4-thiadiazol-2-yl)isoxazol-5-yl)-5-(trifluoromethyl)-1H-pyrazol-1-yl)phenyl)acetamide]",,"IC50 (Homo sapiens, 48 h, read-out: IC50 (Tcell proliferation)): 1000 to 10000 nM"
"COC(=O)c1c(-c2c(F)cccc2Cl)noc1-c1cnn(-c2ccccc2I)c1C(F)(F)F [Example 88, methyl 3-(2-chloro-6-fluorophenyl)-5-(1-(2-iodophenyl)-5-(trifluoromethyl)-1H-pyrazol-4-yl)isoxazole-4-carboxylate]",1000 to 10000,
"CC(=O)Nc1c(-c2c(F)cccc2Cl)noc1-c1cnn(-c2cccc(F)c2)c1C(F)(F)F [Example 139, N-(3-(2-chloro-6-fluorophenyl)-5-(1-(3-fluorophenyl)-5-(trifluoromethyl)-1H-pyrazol-4-yl)isoxazol-4-yl)acetamide]",1000 to 10000,
"CC(C)OC(=O)c1c(-c2c(F)cccc2Cl)noc1-c1cnn(-c2ccccc2F)c1C(F)(F)F [Example 43, i-Propyl 3-(2-chloro-6-fluorophenyl)-5-[1-(2-fluorophenyl)-5-(trifluoromethyl)-1H-pyrazol-4-yl]isoxazole-4-carboxylate]",10 to 100,
"CNC(=O)c1c(-c2c(F)cccc2Cl)noc1-c1cnn(-c2ccc(F)cc2F)c1C(F)(F)F [Example 57, 3-(2-chloro-6-fluorophenyl)-5-(1-(2,4-difluorophenyl)-5-(trifluoromethyl)-1H-pyrazol-4-yl)-N-methylisoxazole-4-carboxamide]",1000 to 10000,
"CCOC(=O)c1c(-c2ccncc2F)noc1-c1cnn(-c2cccc(Cl)c2)c1C(F)(F)F [Example B-4, ethyl 5-(1-(3-chlorophenyl)-5-(trifluoromethyl)-1H-pyrazol-4-yl)-3-(3-fluoropyridin-4-yl)isoxazole-4-carboxylate]",1000 to 10000,
"Fc1cccc(Cl)c1-c1noc(-c2cnn(-c3ccncc3)c2C(F)(F)F)c1-c1ccoc1 [IB-24, 3-(2-chloro-6-fluorophenyl)-4-(furan-3-yl)-5-(1-(pyridin-4-yl)-5-(trifluoromethyl)-1H-pyrazol-4-yl)isoxazole]",,IC50 [2]: 10 to 100 nM
"Fc1cccc(Cl)c1-c1noc(-c2cnn(-c3ccccn3)c2C(F)(F)F)c1-c1nnco1 [IB-25, 2-(3-(2-chloro-6-fluorophenyl)-5-(1-(pyridin-2-yl)-5-(trifluoromethyl)-1H-pyrazol-4-yl)isoxazol-4-yl)-1,3,4-oxadiazole]",,IC50 [2]: 10 to 100 nM
"CNC(=O)c1c(-c2c(F)cccc2Cl)noc1-c1cnn(-c2ccccc2)c1C(F)(F)F [Example 59, 3-(2-chloro-6-fluorophenyl)-N-methyl-5-(1-phenyl-5-(trifluoromethyl)-1H-pyrazol-4-yl)isoxazole-4-carboxamide]",100 to 1000,
"CNC(=O)c1c(-c2c(F)cccc2Cl)noc1-c1cnn(-c2ccccn2)c1C(F)(F)F [Example B-93, 3-(2-chloro-6-fluorophenyl)-N-methyl-5-(1-(pyridin-2-yl)-5-(trifluoromethyl)-1H-pyrazol-4-yl)isoxazole-4-carboxamide]",1000 to 10000,
"NC(=O)c1c(-c2c(F)cccc2Cl)noc1-c1cnn(-c2cccc(Cl)c2)c1C(F)(F)F [Example 121, 3-(2-chloro-6-fluorophenyl)-5-(1-(3-chlorophenyl)-5-(trifluoromethyl)-1H-pyrazol-4-yl)isoxazole-4-carboxamide]",1000 to 10000,
"CON(C)C(=O)c1c(-c2c(F)cccc2Cl)noc1-c1cnn(-c2ccccc2Cl)c1C(F)(F)F [Example B-51, 3-(2-chloro-6-fluorophenyl)-5-(1-(2-chlorophenyl)-5-(trifluoromethyl)-1H-pyrazol-4-yl)-N-methoxy-N-methylisoxazole-4-carboxamide]",1000 to 10000,
"Nc1c(-c2c(F)cccc2Cl)noc1-c1cnn(-c2cccc(F)c2)c1C(F)(F)F [Example 117, 3-(2-chloro-6-fluorophenyl)-5-(1-(3-fluorophenyl)-5-(trifluoromethyl)-1H-pyrazol-4-yl)isoxazol-4-amine]",100 to 1000,
"CCOC(=O)c1c(-c2onc(-c3c(F)cccc3Cl)c2C(=O)OC)cnn1-c1cccc(F)c1 [Example 8, methyl 3-(2-chloro-6-fluorophenyl)-5-(5-(ethoxycarbonyl)-1-(3-fluorophenyl)-1H-pyrazol-4-yl)isoxazole-4-carboxylate]",100 to 1000,
"O=C(c1c(-c2c(F)cccc2Cl)noc1-c1cnn(-c2cccc(F)c2)c1C(F)(F)F)N1CCCO1 [Example 118, (3-(2-chloro-6-fluorophenyl)-5-(1-(3-fluorophenyl)-5-(trifluoromethyl)-1H-pyrazol-4-yl)isoxazol-4-yl)(isoxazolidin-2-yl)methanone]",10 to 100,
"COCCn1ncc(-c2onc(-c3c(F)cccc3Cl)c2C(=O)OC)c1C(F)(F)F [Example 102, methyl 3-(2-chloro-6-fluorophenyl)-5-(1-(2-methoxyethyl)-5-(trifluoromethyl)-H-pyrazol-4-yl)isoxazole-4-carboxylate]",100 to 1000,
"CCOC(=O)c1c(-c2onc(-c3c(F)cccc3Cl)c2C(=O)OC)cnn1-c1cc(F)cc(F)c1 [Example 39, methyl 3-(2-chloro-6-fluorophenyl)-5-(1-(3,5-difluorophenyl)-5-(ethoxycarbonyl)-1-H-pyrazol-4-yl)isoxazole-4-carboxylate]",1000 to 10000,
"Cc1nnc(-c2c(-c3c(F)cccc3Cl)noc2-c2cnn(-c3cccnc3)c2C(F)(F)F)o1 [IB-10, 2-(3-(2-chloro-6-fluorophenyl)-5-(1-(pyridin-3-yl)-5-(trifluoromethyl)-1H-pyrazol-4-yl)isoxazol-4-yl)-5-methyl-1,3,4-oxadiazole]",,IC50 [2]: 100 to 1000 nM
"O=C(c1c(-c2c(F)cccc2Cl)noc1-c1cnn(-c2cccc(Cl)c2)c1C(F)(F)F)N1CCOCC1 [Example B-35, (3-(2-chloro-6-fluorophenyl)-5-(1-(3-chlorophenyl)-5-(trifluoromethyl)-1H-pyrazol-4-yl)isoxazol-4-yl)(morpholino)methanone]",1000 to 10000,
"COC(=O)c1c(-c2ccc(Cl)cc2)noc1-c1cnn(-c2cccc(F)c2)c1C(F)(F)F [Example 73, methyl 3-(4-chlorophenyl)-5-(1-(3-fluorophenyl)-5-(trifluoromethyl)-1H-pyrazol-4-yl)isoxazole-4-carboxylate]",1000 to 10000,
COC(=O)c1c(-c2c(F)cccc2Cl)noc1-c1cnn(CC(C)C)c1C(F)(F)F [Example 28],100 to 1000,
"COC(=O)Nc1c(-c2c(F)cccc2Cl)noc1-c1cnn(-c2cccc(F)c2)c1C(F)(F)F [Example 138, methyl 3-(2-chloro-6-fluorophenyl)-5-[1-(3-fluorophenyl)-5-(trifluoromethyl)-1H-pyrazol-4-yl]isoxazol-4-ylcarbamate]",100 to 1000,
